In brackets after ≈: the same amount, converted by molar mass.
Assays:
Staphylococcus aureus [1] = assay: Antibacterial activity against vancomycin-sensitive Staphylococcus aureus Newman assessed as inhibition of bacterial growth after 16 hrs; format: functional, organism-based
Staphylococcus aureus [2] = assay: Antibacterial activity against vancomycin-intermediate resistant Staphylococcus aureus Mu50 assessed as inhibition of bacterial growth after 16 hrs; format: functional, organism-based; conditions: Mu50, 16 h

| SMILES | IC50 (Staphylococcus aureus [1]) [µg/mL] | IC50 (Staphylococcus aureus [2]) [µg/mL] |
| --- | --- | --- |
| CN[C@H](CC(C)C)C(=O)N[C@H]1C(=O)N[C@@H](CC(N)=O)C(=O)N[C@H]2C(=O)N[C@H]3C(=O)N[C@H](C(=O)N[C@H](C(=O)O)c4cc(O)cc(O)c4-c4cc3ccc4O)[C@H](O)c3ccc(c(Cl)c3)Oc3cc2cc(c3O[C@@H]2O[C@H](CO)[C@@H](O)[C@H](O)[C@H]2O[C@H]2C[C@](C)(NCc3ccc(-c4ccc(Cl)cc4)cc3)[C@H](O)[C@H](C)O2)Oc2ccc(cc2Cl)[C@H]1O | < 0.125 | 2 (≈ 1.21 µM) |
| CN[C@H](CC(C)C)C(=O)N[C@H]1C(=O)N[C@@H](CC(N)=O)C(=O)N[C@H]2C(=O)N[C@H]3C(=O)N[C@H](C(=O)N[C@H](C(=O)O)c4cc(O)cc(O)c4-c4cc3ccc4O)[C@H](O)c3ccc(c(Cl)c3)Oc3cc2cc(c3O[C@@H]2O[C@H](CO)[C@@H](O)[C@H](O)[C@H]2O[C@H]2C[C@](C)(NCC(OCc3ccccc3)C(=O)OC)[C@H](O)[C@H](C)O2)Oc2ccc(cc2Cl)[C@H]1O (stereo not given in full) | 8 (≈ 4.87 µM) | 32 (≈ 19.5 µM) |
| CN[C@H](CC(C)C)C(=O)N[C@H]1C(=O)N[C@@H](CC(N)=O)C(=O)N[C@H]2C(=O)N[C@H]3C(=O)N[C@H](C(=O)N[C@H](C(=O)O)c4cc(O)cc(O)c4-c4cc3ccc4O)[C@H](O)c3ccc(c(Cl)c3)Oc3cc2cc(c3O[C@@H]2O[C@H](CO)[C@@H](O)[C@H](O)[C@H]2O[C@H]2C[C@](C)(NCC(OCc3ccc(-c4ccc(Cl)cc4)cc3)C(=O)OC)[C@H](O)[C@H](C)O2)Oc2ccc(cc2Cl)[C@H]1O (stereo not given in full) | < 0.125 | 2 (≈ 1.14 µM) |
| CCCCOC(CN[C@@]1(C)C[C@H](O[C@H]2[C@H](Oc3c4cc5cc3Oc3ccc(cc3Cl)[C@@H](O)[C@@H](NC(=O)[C@@H](CC(C)C)NC)C(=O)N[C@@H](CC(N)=O)C(=O)N[C@H]5C(=O)N[C@H]3C(=O)N[C@H](C(=O)N[C@H](C(=O)O)c5cc(O)cc(O)c5-c5cc3ccc5O)[C@H](O)c3ccc(c(Cl)c3)O4)O[C@H](CO)[C@@H](O)[C@@H]2O)O[C@@H](C)[C@H]1O)C(=O)OC (stereo not given in full) | 16 (≈ 9.95 µM) | 64 (≈ 39.8 µM) |
| CCCCCCOC(CN[C@@]1(C)C[C@H](O[C@H]2[C@H](Oc3c4cc5cc3Oc3ccc(cc3Cl)[C@@H](O)[C@@H](NC(=O)[C@@H](CC(C)C)NC)C(=O)N[C@@H](CC(N)=O)C(=O)N[C@H]5C(=O)N[C@H]3C(=O)N[C@H](C(=O)N[C@H](C(=O)O)c5cc(O)cc(O)c5-c5cc3ccc5O)[C@H](O)c3ccc(c(Cl)c3)O4)O[C@H](CO)[C@@H](O)[C@@H]2O)O[C@@H](C)[C@H]1O)C(=O)OC (stereo not given in full) | 2 (≈ 1.22 µM) | 4 (≈ 2.45 µM) |
| CN[C@H](CC(C)C)C(=O)N[C@H]1C(=O)N[C@@H](CC(N)=O)C(=O)N[C@H]2C(=O)N[C@H]3C(=O)N[C@H](C(=O)N[C@H](C(=O)O)c4cc(O)cc(O)c4-c4cc3ccc4O)[C@H](O)c3ccc(c(Cl)c3)Oc3cc2cc(c3O[C@@H]2O[C@H](CO)[C@@H](O)[C@H](O)[C@H]2O[C@H]2C[C@](C)(NCC(OCc3ccccc3)C(=O)O)[C@H](O)[C@H](C)O2)Oc2ccc(cc2Cl)[C@H]1O (stereo not given in full) | 16 (≈ 9.83 µM) | 64 (≈ 39.3 µM) |
| CN[C@H](CC(C)C)C(=O)N[C@H]1C(=O)N[C@@H](CC(N)=O)C(=O)N[C@H]2C(=O)N[C@H]3C(=O)N[C@H](C(=O)N[C@H](C(=O)O)c4cc(O)cc(O)c4-c4cc3ccc4O)[C@H](O)c3ccc(c(Cl)c3)Oc3cc2cc(c3O[C@@H]2O[C@H](CO)[C@@H](O)[C@H](O)[C@H]2O[C@H]2C[C@](C)(NCC(OCc3ccc(-c4ccc(Cl)cc4)cc3)C(=O)O)[C@H](O)[C@H](C)O2)Oc2ccc(cc2Cl)[C@H]1O (stereo not given in full) | < 0.125 | 2 (≈ 1.15 µM) |
| CCCCOC(CN[C@@]1(C)C[C@H](O[C@H]2[C@H](Oc3c4cc5cc3Oc3ccc(cc3Cl)[C@@H](O)[C@@H](NC(=O)[C@@H](CC(C)C)NC)C(=O)N[C@@H](CC(N)=O)C(=O)N[C@H]5C(=O)N[C@H]3C(=O)N[C@H](C(=O)N[C@H](C(=O)O)c5cc(O)cc(O)c5-c5cc3ccc5O)[C@H](O)c3ccc(c(Cl)c3)O4)O[C@H](CO)[C@@H](O)[C@@H]2O)O[C@@H](C)[C@H]1O)C(=O)O (stereo not given in full) | 64 (≈ 40.2 µM) | 128 (≈ 80.3 µM) |
| CCCCCCOC(CN[C@@]1(C)C[C@H](O[C@H]2[C@H](Oc3c4cc5cc3Oc3ccc(cc3Cl)[C@@H](O)[C@@H](NC(=O)[C@@H](CC(C)C)NC)C(=O)N[C@@H](CC(N)=O)C(=O)N[C@H]5C(=O)N[C@H]3C(=O)N[C@H](C(=O)N[C@H](C(=O)O)c5cc(O)cc(O)c5-c5cc3ccc5O)[C@H](O)c3ccc(c(Cl)c3)O4)O[C@H](CO)[C@@H](O)[C@@H]2O)O[C@@H](C)[C@H]1O)C(=O)O (stereo not given in full) | 4 (≈ 2.47 µM) | 8 (≈ 4.93 µM) |
| CN[C@H](CC(C)C)C(=O)N[C@H]1C(=O)N[C@@H](CC(N)=O)C(=O)N[C@H]2C(=O)N[C@H]3C(=O)N[C@H](C(=O)N[C@H](C(=O)O)c4cc(O)cc(O)c4-c4cc3ccc4O)[C@H](O)c3ccc(c(Cl)c3)Oc3cc2cc(c3O[C@@H]2O[C@H](CO)[C@@H](O)[C@H](O)[C@H]2O[C@H]2C[C@](C)(N)[C@H](O)[C@H](C)O2)Oc2ccc(cc2Cl)[C@H]1O [VANCOMYCIN] | 2 (≈ 1.38 µM) | 8 (≈ 5.52 µM) |

Reference: ChEMBL document CHEMBL3259801, “Design and synthesis of new vancomycin derivatives” (Bioorg Med Chem Lett, 2014)
